Earlier results in patent US20130210031A1 (priority 2010, published 2013).

Target: EF (Bacillus anthracis, UniProt P40136)
Sequence (P40136 whole entry, looked up): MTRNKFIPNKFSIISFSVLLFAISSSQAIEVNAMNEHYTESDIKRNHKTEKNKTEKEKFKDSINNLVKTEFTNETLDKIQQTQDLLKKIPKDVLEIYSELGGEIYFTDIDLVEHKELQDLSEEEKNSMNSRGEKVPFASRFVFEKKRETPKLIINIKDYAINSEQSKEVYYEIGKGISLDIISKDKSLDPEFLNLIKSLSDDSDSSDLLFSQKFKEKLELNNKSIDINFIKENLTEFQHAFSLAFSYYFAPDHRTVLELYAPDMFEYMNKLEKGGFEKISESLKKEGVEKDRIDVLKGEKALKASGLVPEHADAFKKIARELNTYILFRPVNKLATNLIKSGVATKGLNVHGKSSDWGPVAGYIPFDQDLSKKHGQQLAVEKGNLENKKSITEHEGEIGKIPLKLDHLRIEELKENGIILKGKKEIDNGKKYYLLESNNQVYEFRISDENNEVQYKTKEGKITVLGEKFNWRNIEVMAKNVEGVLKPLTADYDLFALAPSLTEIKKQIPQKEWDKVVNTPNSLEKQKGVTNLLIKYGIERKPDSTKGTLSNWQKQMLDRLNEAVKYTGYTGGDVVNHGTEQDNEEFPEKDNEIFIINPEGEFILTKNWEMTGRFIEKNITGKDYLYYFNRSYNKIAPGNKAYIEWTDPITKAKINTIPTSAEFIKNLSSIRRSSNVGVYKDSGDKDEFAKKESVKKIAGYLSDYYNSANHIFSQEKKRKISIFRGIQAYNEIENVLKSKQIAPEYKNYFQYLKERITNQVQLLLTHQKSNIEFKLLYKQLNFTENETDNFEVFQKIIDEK

Q: With `CC(C)(C)C(=O)OCOP(=O)(COCCn1cnc2c(N)ncnc21)OCOC(=O)C(C)(C)C` [adefovir dipivoxil] as the compound, how does the EF inhibitor potency read?
A: The EF inhibitor potency was “potent EF inhibitor”.
